Measurements reported in patent US6737383B1, “Herbicidal oxadiazolidines” (priority 1999, dated 2004).

Columns and labels:
bedstraw = experiment: Test B pre/postemergence bedstraw; format: in vivo, Galium aparine
Method in brief: (§1)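 Herbicidal effect was estimated by eye on a ten-point control scale after plants spent twelve to sixteen days in a greenhouse following soil or foliar treatment. Foliar sprays targeted plants at one to four leaves; all doses were formulated in a non-phytotoxic solvent with surfactant.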

blackgrass = experiment: Test B pre/postemergence blackgrass; format: in vivo, Alopecurus myosuroides
Method in brief: as §1

surinam grass = experiment: Test B pre/postemergence surinam grass; format: in vivo, Brachiaria decumbens
Method in brief: as §1

corn = experiment: Test B pre/postemergence corn; format: in vivo, Zea mays
Method in brief: as §1

crabgrass = experiment: Test B pre/postemergence crabgrass; format: in vivo, Digitaria sanguinalis
Method in brief: as §1

pigweed = experiment: Test B pre/postemergence pigweed; format: in vivo, Amaranthus retroflexus
Method in brief: as §1

rape = experiment: Test B pre/postemergence rape; format: in vivo, Brassica napus
Method in brief: as §1

soybean = experiment: Test B pre/postemergence soybean; format: in vivo, Glycine max
Method in brief: as §1

sugar beet = experiment: Test B pre/postemergence sugar beet; format: in vivo, Beta vulgaris
Method in brief: as §1

velvetleaf = experiment: Test B pre/postemergence velvetleaf; format: in vivo, Abutilon theophrasti
Method in brief: as §1

wheat = experiment: Test B pre/postemergence wheat; format: in vivo, Triticum aestivum
Method in brief: as §1

wild oat = experiment: Test B pre/postemergence wild oat; format: in vivo, Avena fatua
Method in brief: as §1

purple nutsedge = experiment: Test B pre/postemergence purple nutsedge; format: in vivo, Cyperus rotundus
Method in brief: as §1

rice = experiment: Test B flood test rice; format: in vivo, Oryza sativa
Method in brief: (§2)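 Flood test on plants grown to the 2-leaf stage; treated plants kept in greenhouse twelve to sixteen days, then visually rated against controls on a 0 (no effect) to 10 (complete control) scale.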

smallflower flatsedge = experiment: Test B flood test smallflower flatsedge; format: in vivo, Cyperus difformis
Method in brief: as §2

duck salad = experiment: Test B flood test duck salad; format: in vivo, Heteranthera limosa
Method in brief: as §2

[1] = Postemergence, Rate 62 g/ha, scale 0 to 10, 0 is no effect, 10 is complete control
[2] = Postemergence, Rate 250 g/ha, scale 0 to 10, 0 no effect, 10 complete control
[3] = Preemergence, Rate 31 g/ha, visual rating, scale 0 to 10 (0 no effect, 10 complete control)
[4] = Preemergence, Rate 62 g/ha, scale 0 to 10, 0 is no effect, 10 is complete control
[5] = Preemergence, Rate 125 g/ha, scale 0 to 10 (0 no effect, 10 complete control)
[6] = Preemergence, Rate 250 g/ha, scale of 0 to 10 where 0 is no effect and 10 is complete control
[7] = Rate 31 g/ha, Postemergence, scale 0 to 10
[8] = Rate 125 g/ha, Postemergence, scale 0 to 10, 0 no effect, 10 complete control
[9] = Rate 125 g/ha, Postemergence section (flood test species), scale 0 to 10, 0 no effect, 10 complete control
[10] = Rate 500 g/ha, Postemergence section of Table B, 0 to 10 scale (0 no effect, 10 complete control)
[11] = flood test, listed under Postemergence, Rate 250 g/ha, scale 0 to 10, 0 no effect, 10 complete control

CCN(C(=O)n1oc(=O)n(-c2ccc(C)cc2C)c1=O)C1CCCCC1 [Compound 26]
Bedstraw plant response rating (bedstraw; [1]): 0
Bedstraw plant response rating (bedstraw; [2]): 0
Bedstraw plant response rating (bedstraw; [3]): 0
Plant response rating, Bedstraw (bedstraw; [4]): 0
Plant response rating, Bedstraw (bedstraw; [5]): 0
Plant response rating, Bedstraw (bedstraw; [6]): 0
Bedstraw plant response rating (bedstraw; [7]): 0
Bedstraw plant response rating (bedstraw; [8]): 0
Blackgrass plant response rating (blackgrass; [1]): 0
Blackgrass plant response rating (blackgrass; [2]): 0
Blackgrass plant response rating (blackgrass; [3]): 0
Plant response rating, Blackgrass (blackgrass; [4]): 0
Plant response rating, Blackgrass (blackgrass; [5]): 0
Plant response rating, Blackgrass (blackgrass; [6]): 0
Blackgrass plant response rating (blackgrass; [7]): 0
Blackgrass plant response rating (blackgrass; [8]): 0
B. signalgrass plant response rating (surinam grass; [1]): 0
B. signalgrass plant response rating (surinam grass; [2]): 0
B. signalgrass plant response rating (surinam grass; [3]): 0
Plant response rating, B. signalgrass (surinam grass; [4]): 0
Plant response rating, B. signalgrass (surinam grass; [5]): 0
Plant response rating, B. signalgrass (surinam grass; [6]): 2
B. signalgrass plant response rating (surinam grass; [7]): 0
B. signalgrass plant response rating (surinam grass; [8]): 0
Corn plant response rating (corn; [1]): 0
Corn plant response rating (corn; [2]): 0
Corn plant response rating (corn; [3]): 0
Plant response rating, Corn (corn; [4]): 0
Plant response rating, Corn (corn; [5]): 0
Plant response rating, Corn (corn; [6]): 0
Corn plant response rating (corn; [7]): 0
Corn plant response rating (corn; [8]): 0
Crabgrass plant response rating (crabgrass; [1]): 0
Crabgrass plant response rating (crabgrass; [2]): 1
Crabgrass plant response rating (crabgrass; [3]): 0
Plant response rating, Crabgrass (crabgrass; [4]): 0
Plant response rating, Crabgrass (crabgrass; [5]): 0
Plant response rating, Crabgrass (crabgrass; [6]): 3
Crabgrass plant response rating (crabgrass; [7]): 0
Crabgrass plant response rating (crabgrass; [8]): 0
Redroot pigweed plant response rating (pigweed; [1]): 0
Redroot pigweed plant response rating (pigweed; [2]): 0
Redroot pigweed plant response rating (pigweed; [3]): 0
Plant response rating, Redroot pigweed (pigweed; [4]): 0
Plant response rating, Redroot pigweed (pigweed; [5]): 0
Plant response rating, Redroot pigweed (pigweed; [6]): 0
Redroot pigweed plant response rating (pigweed; [7]): 0
Redroot pigweed plant response rating (pigweed; [8]): 0
Rape plant response rating (rape; [1]): 0
Rape plant response rating (rape; [2]): 0
Rape plant response rating (rape; [3]): 0
Plant response rating, Rape (rape; [4]): 0
Plant response rating, Rape (rape; [5]): 0
Plant response rating, Rape (rape; [6]): 0
Rape plant response rating (rape; [7]): 0
Rape plant response rating (rape; [8]): 0
Soybean plant response rating (soybean; [1]): 1
Soybean plant response rating (soybean; [2]): 2
Soybean plant response rating (soybean; [3]): 0
Plant response rating, Soybean (soybean; [4]): 0
Plant response rating, Soybean (soybean; [5]): 0
Plant response rating, Soybean (soybean; [6]): 0
Soybean plant response rating (soybean; [8]): 1
Sugarbeets plant response rating (sugar beet; [1]): 0
Sugarbeets plant response rating (sugar beet; [2]): 0
Sugarbeets plant response rating (sugar beet; [3]): 0
Plant response rating, Sugarbeets (sugar beet; [4]): 0
Plant response rating, Sugarbeets (sugar beet; [5]): 0
Plant response rating, Sugarbeets (sugar beet; [6]): 0
Sugarbeets plant response rating (sugar beet; [8]): 0
Velvetleaf plant response rating (velvetleaf; [1]): 0
Velvetleaf plant response rating (velvetleaf; [2]): 0
Velvetleaf plant response rating (velvetleaf; [3]): 0
Plant response rating, Velvetleaf (velvetleaf; [4]): 0
Plant response rating, Velvetleaf (velvetleaf; [5]): 0
Plant response rating, Velvetleaf (velvetleaf; [6]): 0
Velvetleaf plant response rating (velvetleaf; [8]): 0
Wheat plant response rating (wheat; [1]): 0
Wheat plant response rating (wheat; [2]): 0
Wheat plant response rating (wheat; [3]): 0
Plant response rating, Wheat (wheat; [4]): 0
Plant response rating, Wheat (wheat; [5]): 0
Plant response rating, Wheat (wheat; [6]): 0
Wheat plant response rating (wheat; [8]): 0
Wild oats plant response rating (wild oat; [1]): 0
Wild oats plant response rating (wild oat; [2]): 0
Wild oats plant response rating (wild oat; [3]): 0
Plant response rating, Wild oats (wild oat; [5]): 0
Plant response rating, Wild oats (wild oat; [6]): 0
Wild oats plant response rating (wild oat; [8]): 0
Nutsedge plant response rating (purple nutsedge; [1]): 0
Nutsedge plant response rating (purple nutsedge; [2]): 0
Nutsedge plant response rating (purple nutsedge; [3]): 0
Plant response rating, Nutsedge (purple nutsedge; [4]): 0
Plant response rating, Nutsedge (purple nutsedge; [5]): 0
Plant response rating, Nutsedge (purple nutsedge; [6]): 0
Nutsedge plant response rating (purple nutsedge; [7]): 0
Nutsedge plant response rating (purple nutsedge; [8]): 0
Rice plant response rating (rice; [1]): 0
Rice plant response rating (rice; [9]): 0
Rice plant response rating (rice; [10]): 0
Rice plant response rating (rice; [11]): 0
S. Flatsedge plant response rating (smallflower flatsedge; [1]): 0
S. Flatsedge plant response rating (smallflower flatsedge; [9]): 0
S. Flatsedge plant response rating (smallflower flatsedge; [11]): 0
Ducksalad plant response rating (duck salad; [1]): 0
Ducksalad plant response rating (duck salad; [9]): 0
Ducksalad plant response rating (duck salad; [10]): 0
Ducksalad plant response rating (duck salad; [11]): 0
